Legend:
[1] = Inhibition of human N-terminally His6-tagged N-acetylglucosaminyltransferase 3 expressed in HEK293T cells assessed as GN-GnGnbi-PAs molar ratio level incubated for 1 hr using 5 uM GnGnbi-PA acceptor substrate and 0.5 to 4 mM UDP-GlcNAc donor substrate by reverse phase HPLC method
[2] = Inhibition of human N-terminally His6-tagged N-acetylglucosaminyltransferase 3 expressed in HEK293T cells assessed as GN-GnGnbi-PAs molar ratio level incubated for 1 hr using 2.5 to 10 uM GnGnbi-PA acceptor substrate and 20 mM UDP-GlcNAc donor substrate by reverse phase HPLC method

| Ki [1] [µM] | Ki [2] [µM] | Structure (SMILES) |
| --- | --- | --- |
| 1400 | 1200 | CO[C@H]1O[C@H](CO[C@H]2O[C@H](CO)[C@@H](O)[C@H](O)[C@@H]2O[C@@H]2O[C@H](CO)[C@@H](O)[C@H](O)[C@H]2NC(C)=O)[C@@H](O)[C@H](O[C@H]2O[C@H](CO)[C@@H](O)[C@H](O)[C@@H]2O[C@@H]2O[C@H](CO)[C@@H](O)[C@H](O)[C@H]2NC(C)=O)[C@@H]1O |
| 1500 | 14000 | CO[C@H]1O[C@H](CO[C@H]2O[C@H](CO)[C@@H](O)[C@H](O)[C@@H]2O[C@@H]2O[C@H](CO)[C@@H](O)[C@H](O)[C@H]2NC(C)=O)[C@@H](O[C@@H]2O[C@H](CO)[C@@H](O)[C@H](O)[C@H]2NC(C)=O)[C@H](O[C@H]2O[C@H](CO)[C@@H](O)[C@H](O)[C@@H]2O[C@@H]2O[C@H](CO)[C@@H](O)[C@H](O)[C@H]2NC(C)=O)[C@@H]1O |
